The text below walks through data of US8088772B2, “Sulfonamides and their use as a medicament” (The Genetics Company, Inc., priority 2006, dated 2012).

One assay concerns βCatenin-BCL9. Kind of assay: ELISA based protein-protein interaction assay. In kind it is binding. To be noted: inhibition class of the βCatenin-BCL9 interaction. As to the method: In vitro ELISA-based Protein-protein Interaction Assay
Protein Production in Bacteria
cDNAs including the binding domains of Lgs and βCatenin were fused downstream of glutathione-S-transferase (GST) cDNA in pGEX-4T inducible bacterial expression vector (Pharmacia). Fusion proteins were produced in BL21 bacteria (e.g. Stratagene) following manufacturer's recommendation.
To isolate the produced fusions protein bacteria were lysed in sonication buffer (10 mM Tris HCl pH 8.0, 150 mM NaCl, 1 mM EDTA, 1.5% sarkosyl, 2% Triton-X-100, 1 mM DTT and protease inhibitors), followed by short sonication on ice (e.g. 3 times 20 seconds at middle power) and centrifugation. Cleared supernatants were incubated under gentle rotation with glutathione beads (Amersham Pharmacia) for 2 hrs at 4° C. Finally, beads were washed several time in washing buffer (20 mM Tris pH 8.0, 200 mM NaCl, 1 mM EDTA, 1 mM DTT, 1 mM MgCl2, 0.5% NP40), and stored in storage buffer (20 mM Tris pH 8.0, 200 mM NaCl, 1 mM EDTA, 1 mM DTT, 1 mM MgCl2, 10% glycerol, 0.5% NP40, and proteinase inhibitors). The quality of the preparations was checked by SDS-gel electrophoresis by standard methods well known by persons skilled in the art. […]

A further assay deals with Wnt pathway. Kind of assay: Cell Assay (CA): inhibition of Wnt activity in cancer cells, Tcf reporter gene. Format: cell-based. To be noted: inhibition class in the Cell Assay. The source says: Inhibition of Wnt Activity in Cancer Cells
The effect of β-catenin/BCL9 inhibitors identified in the ELISA-based protein-protein interaction assay on the Wnt pathway can be evaluated in a cell culture system using a reporter gene responsive to the Tcf/Lef family of transcription factors or by quantitative analysis of Wnt target genes in appropriate cell lines.
A reporter gene is a construct which comprises a readily detectable or assayable gene such β-galactosidase, green fluorescent protein, chloramphenicol acetyltransferase or luciferase, linked in cis to a transcription factor response element and a minimal promoter. Depending on the expression vectors used, this protocol can be applied, e.g. for mammalian as well as for Drosophila cell lines. For instance, colon cancer cells with constitutively active Wnt pathway like DLD-1 or SW620 (ATCC) are a well suitable system. Hereby, a Tcf-4 driven luciferase reporter plasmid (i.e. TOP-FLASH, Upstate biotechnology, New York, USA) is transiently or stably transfected into cells known in the art. Any means for introducing genetic material into cells can be used, including but not limited to infection, electroporation or transfection. For instance, to introduce DNA into DLD-1 cells, a lipofection agent like the Lipofectamine transfection reagent (Life Technologies, Inc.) can be used. By transient transfection protocols, a second reporter gene, e.g. the renilla luciferase reporter plasmid pRL-SV40 (Promega Corporation, Madison USA), needs to be co-transfected to normalize for transfection efficiency. Drugs are added to the media 24 h after trans-fection (transient transfection) or 24 h after seeding of the cells (stably transfected cells). Cell extracts are prepared 24 to 48 h later and assayed for reporter gene activity as described by the manufacturer (eg. for luciferase activity: Promega Corporation). Compounds reducing reporter gene activity more than 50% compared to solvent alone treated cells are considered as hits. In parallel, toxicity can be assessed for instance by the yellow tetrazolium salt cell proliferation assay (MTT) assay.

SMILES strings stand for the structures.

Molecule `O=C(NNc1ccc([N+](=O)[O-])cc1S(=O)(=O)Nc1ccccc1Cl)c1cc(Cl)cc(Cl)c1` [TGC0011568] displayed an ELISA in the assay on βCatenin-BCL9 of 1.5. In addition, the CA in the assay on Wnt pathway is on record as 4 (61-80% inhibition).
The matching figures for `Cc1cc(-c2ccccc2)nn1-c1ccc([N+](=O)[O-])cc1S(=O)(=O)Nc1ccccc1Cl` [TGC0011569]: 1.5 and 4 (61-80% inhibition).
The matching figures for `Cc1cc(-c2ccccc2)n(-c2ccc([N+](=O)[O-])cc2S(=O)(=O)Nc2ccccc2Cl)n1` [TGC0011570]: 5 (81-100% inhibition) and 4 (61-80% inhibition).
As for `Nc1ccc(NC(=O)Cc2ccc(Cl)cc2)c(S(=O)(=O)Nc2ccccc2Cl)c1` [TGC0011573], the ELISA with βCatenin-BCL9 is on record as 3 (41-60% inhibition). For the same molecule, the CA with Wnt pathway was 1 (0-20% inhibition).
The matching figures for `O=C(Cc1ccc(Cl)cc1)Nc1ccc(N2CCOCC2)c(S(=O)(=O)Nc2ccccc2Cl)c1` [TGC0011574]: 3 (41-60% inhibition) and 2.5.
The matching figures for `CC(=O)Nc1ccc(S(=O)(=O)NNc2ccc([N+](=O)[O-])cc2S(=O)(=O)Nc2ccccc2Cl)cc1` [TGC0011575]: 1 (0-20% inhibition) and 3 (41-60% inhibition).
The matching figures for `O=[N+]([O-])c1ccc(NNS(=O)(=O)c2ccc(Cl)cc2)c(S(=O)(=O)Nc2ccccc2Cl)c1` [TGC0011576]: 3 (41-60% inhibition) and 5 (81-100% inhibition).
Turning to `CS(=O)(=O)c1ccc(S(=O)(=O)NNc2ccc([N+](=O)[O-])cc2S(=O)(=O)Nc2ccccc2Cl)cc1` [TGC0011577], in the assay on βCatenin-BCL9, the ELISA is 4 (61-80% inhibition). In addition, the CA with Wnt pathway was 1 (0-20% inhibition).
The matching figures for `CC(=O)c1ccc(S(=O)(=O)NNc2ccc([N+](=O)[O-])cc2S(=O)(=O)Nc2ccccc2Cl)cc1` [TGC0011581]: 2 (21-40% inhibition) and 1 (0-20% inhibition).
The matching figures for `COc1ccc(/C=N/Nc2ccc(N)cc2S(=O)(=O)Nc2ccccc2Cl)cc1OC` [TGC0011584]: 1 (0-20% inhibition) and 3 (41-60% inhibition).
The matching figures for `O=C(O)c1ccc(CNNc2ccc([N+](=O)[O-])cc2S(=O)(=O)Nc2ccccc2Cl)cc1` [TGC0011589]: 5 (81-100% inhibition) and 4 (61-80% inhibition).
With `COC(=O)c1ccccc1S(=O)(=O)Nc1ccccc1Cl` [TGC0011601], the ELISA in the assay on βCatenin-BCL9 is recorded as 1 (0-20% inhibition). In addition, the CA in the assay on Wnt pathway is 1 (0-20% inhibition).
For `O=[N+]([O-])c1ccc(NNCc2ccc(F)cc2)c(S(=O)(=O)Nc2ccccc2Cl)c1` [TGC0012257], in the assay on βCatenin-BCL9, the ELISA was 1 (0-20% inhibition). Also, the CA with Wnt pathway came out at 1.5.
The matching figures for `O=[N+]([O-])c1ccc(NNCc2ccc3nonc3c2)c(S(=O)(=O)Nc2ccccc2Cl)c1` [TGC0012260]: 4.5 and 1.5.
The matching figures for `O=[N+]([O-])c1ccc(NNCc2cc(F)cc(F)c2)c(S(=O)(=O)Nc2ccccc2Cl)c1` [TGC0012266]: 2.5 and 1.5.
